Measured values as given in patent publication US20210300936A1, “PYRAZOLOTRIAZOLOPYRIMIDINE DERIVATIVES AS A2A RECEPTOR ANTAGONIST” (BEIGENE, LTD., priority 2018, published 2021).
Read-outs that look alike come from different tables or passages of the source.

How the values were obtained:
[1] = target: T1, human adenosine receptor A2A (A2AR) (Homo sapiens, UniProt P29274); test: Adenosine receptor binding assay, radioligand competitive binding, [3H]CGS21680; details: membrane homogenates from HEK293 cells transfected with A2AR, 6 nM [3H]CGS21680
T1 construct: host or cells: HEK293 cells (membrane homogenates)
T1 sequence (P29274 whole entry): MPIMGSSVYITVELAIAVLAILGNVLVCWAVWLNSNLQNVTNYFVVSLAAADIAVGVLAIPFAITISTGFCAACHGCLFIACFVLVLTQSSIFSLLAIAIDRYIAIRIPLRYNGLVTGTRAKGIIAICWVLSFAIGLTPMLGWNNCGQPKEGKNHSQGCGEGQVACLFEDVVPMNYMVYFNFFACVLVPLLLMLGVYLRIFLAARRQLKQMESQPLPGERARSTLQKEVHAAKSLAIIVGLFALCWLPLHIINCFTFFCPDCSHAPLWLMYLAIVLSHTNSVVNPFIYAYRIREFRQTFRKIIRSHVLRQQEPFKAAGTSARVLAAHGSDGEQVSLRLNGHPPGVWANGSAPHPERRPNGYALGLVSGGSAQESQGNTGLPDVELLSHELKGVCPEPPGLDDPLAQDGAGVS
Description: (§1) Binding affinity of test compounds to four human adenosine receptors, A1, A2A, A2B and A3 was determined in radioligand competitive binding assay (conducted by Cerep, France) using following protocols. For A1 receptor (A1R), membrane homogenates from CHO cells transfected with A1R were incubated for 60 min at 22° C. with 1 nM [3H]DPCPX in the absence or presence of the test compound in a buffer containing 50 mM Tris-HCl (pH 7.4), 5 mM MgCl2, 1 mM EDTA/Tris and 2 UI/mL ADA. For A2AR, membrane homogenates from HEK293 cells transfected with A2AR were incubated for 120 min at 22° C. with 6 nM [3H]CGS21680 in the absence or presence of the test compound in a buffer containing 50 mM Tris-HCl (pH 7.4), 10 mM MgCl2, and 2 UI/mL ADA. For A2B receptor (A2BR), membrane homogenates from HEK293 cells transfected with A2BR were incubated for 60 min at 22° C. with 5 nM [3H]CPX in the absence or presence of the test compound in a buffer containing 10 mM Hepes/Tris (pH 7), 1 mM MgCl2, and 1 mM EDTA. For A3 receptor (A3R), membrane homogenates from HEK293 cells transfected with A3R were incubated for 120 min at 22° C. with 0.15 nM [125I]AB-MECA in the absence or presence of the test compound in a buffer containing 50 mM Tris-HCl (pH 7.4), 5 mM MgCl2, 1 mM EDTA and 2 UI/mL ADA. Nonspecific binding was determined in the presence of unlabeled 1 μM DPCPX, 10 μM NECA, 100 μM NECA, and 1 μM IB-MECA in A1R, A2AR, A2BR, A3R binding assays, respectively. Following incubation, the samples are rapidly filtered and washed with ice-cold 50 mM Tris-HCl. Then filters are dried and counted for radioactivity in a scintillation counter (Topcount, Packard) using a scintillation cocktail (Microscint 0, Packard). Duplicate experiments were performed for each assay. The results are expressed as a percent inhibition of control radioligand specific binding.

[2] = target: T2, human adenosine receptor A1 (A1R) (Homo sapiens, UniProt P30542); test: Adenosine receptor binding assay, radioligand competitive binding, [3H]DPCPX; details: membrane homogenates from CHO cells transfected with A1R, 1 nM [3H]DPCPX
T2 construct: host or cells: CHO cells (membrane homogenates)
T2 sequence (P30542 1-326): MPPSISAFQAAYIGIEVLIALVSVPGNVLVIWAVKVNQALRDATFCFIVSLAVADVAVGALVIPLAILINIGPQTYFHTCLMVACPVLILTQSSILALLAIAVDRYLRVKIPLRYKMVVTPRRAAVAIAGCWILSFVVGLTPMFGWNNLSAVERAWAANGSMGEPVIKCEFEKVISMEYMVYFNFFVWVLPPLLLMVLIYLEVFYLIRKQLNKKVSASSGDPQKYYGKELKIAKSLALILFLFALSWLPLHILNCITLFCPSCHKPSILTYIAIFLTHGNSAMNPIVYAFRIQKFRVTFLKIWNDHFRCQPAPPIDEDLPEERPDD
Description: as §1

Mouse BBB assay = type: in vivo; details: oral 10 mg/kg
Description: Mice were acclimated for 1 week prior to use at 18-30 g body weight. Fasted mice were dosed orally at 10 mg/kg dose. At 1, 2 and 4 hours postdose, plasma samples from cardiac blood collected in tubes containing K2EDTA as the anticoagulant, and excised cerebral hemispheres were immediately frozen and stored at −80° C. until bioanalysis. Total concentrations of the compound were determined by LC-MS/MS. Brain homogenate concentrations were converted to brain concentrations for the calculations of brain-to-plasma ratios.

[3] = target: human A2A receptor (A2AR) (Homo sapiens, UniProt P29274); test: Luciferase reporter assay (HEK293-A2AR-luc2p/CRE/Hygro cells, 3 nM CGS21680); type: cell-based; details: 3 nM CGS21680, 5 h incubation
Chain of human A2A receptor (A2AR) (P29274 whole entry): as the sequence (P29274 whole entry) above
How it was run: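 HEK293 cells stably expressing A2AR with a CRE-luc2P reporter were seeded in 1% FBS with 1 U/mL adenosine deaminase. After 18 h, cells got 3 nM CGS21680 plus antagonist at 0.1–10000 nM for 5 h, followed by a luciferase readout. IC50 is relative to the 3 nM CGS21680 signal, set as 100%.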

| Ki [1] | Ki [2] | concentration at 1 h (Mouse BBB assay; brain, read-out: Brain) | concentration at 1 h (Mouse BBB assay; plasma, read-out: Plasma) | IC50 [3] | SMILES |
| --- | --- | --- | --- | --- | --- |
| 1.7 nM | 160 nM | 5.1 ng/g | 116 ng/mL | 2.2 nM | CCCC(C(=O)N1CCN(c2ccc(OCCOC)cc2)CC1)n1ncc2c1nc(N)n1nc(-c3ccco3)nc21 (single isomer, unassigned) [Compound A5a, 2-(5-amino-2-(furan-2-yl)-7H-pyrazolo[4,3-e][1,2,4]triazolo[1,5-c]pyrimidin-7-yl)-1-(4-(4-(2-methoxyethoxy)phenyl)piperazin-1-yl)pentan-1-one] |
| 1.4 nM | 81 nM | 4.2 ng/g | 173 ng/mL | 5 nM | CCCC(C(=O)N1CCN(c2ccc(OCCOCCOC)cc2)CC1)n1ncc2c1nc(N)n1nc(-c3ccco3)nc21 (single isomer, unassigned) [Compound A6a, 2-(5-amino-2-(furan-2-yl)-7H-pyrazolo[4,3-e][1,2,4]triazolo[1,5-c]pyrimidin-7-yl)-1-(4-(4-(2-(2-methoxyethoxy)ethoxy)phenyl)piperazin-1-yl)pentan-1-one] |
| 2.3 nM | 120 nM | 20 ng/g | 471 ng/mL | 2.7 nM | CCCCC(C(=O)N1CCN(c2ccc(OCCOC)cc2)CC1)n1ncc2c1nc(N)n1nc(-c3ccco3)nc21 (single isomer, unassigned) [Compound A10a, 2-(5-amino-2-(furan-2-yl)-7H-pyrazolo[4,3-e][1,2,4]triazolo[1,5-c]pyrimidin-7-yl)-1-(4-(4-(2-methoxyethoxy)phenyl)piperazin-1-yl)hexan-1-one] |
| 0.92 nM | 42 nM | 54 ng/g | 2440 ng/mL | 0.8 nM | COCCOc1ccc(N2CCN(C(=O)C(c3ccccc3)n3ncc4c3nc(N)n3nc(-c5ccco5)nc43)CC2)cc1 (single isomer, unassigned) [Compound A13b] |
| 0.89 nM | 150 nM |  |  | 0.5 nM | Nc1nc2c(cnn2C(C(=O)N2CCc3ccccc3C2)c2ccccc2)c2nc(-c3ccco3)nn12 (single isomer, unassigned) [Compound B3b] |
| 6.2 nM | < 0.5 nM |  |  | 57.1 nM | COCCOc1ccc(N2CCN(C(=O)C(C)n3cc4c(nc(N)n5nc(-c6ccco6)nc45)n3)CC2)cc1 (single isomer, unassigned) [Compound C1a] |
| 2.5 nM | 10 nM |  |  | 12.7 nM | COCCOc1ccc(N2CCN(C(=O)C(C)n3cc4c(nc(N)n5nc(-c6ccco6)nc45)n3)CC2)cc1 (single isomer, unassigned) [Compound C1b] |
| 3.1 nM | 1130 nM |  |  | 8 nM | COCCOc1ccc(N2CCN(C(=O)[C@](C)(c3ccccc3)n3ncc4c3nc(N)n3nc(-c5ccco5)nc43)CC2)cc1 [Compound A63a, (S)-2-(5-amino-2-(furan-2-yl)-7H-pyrazolo[4,3-e][1,2,4]triazolo[1,5-c]pyrimidin-7-yl)-1-(4-(4-(2-methoxyethoxy)phenyl)piperazin-1-yl)-2-phenylpropan-1-one] |
| 1.5 nM | 153 nM |  |  | 3.3 nM | COCCOc1ccc(N2CCN(C(=O)[C@@](C)(c3ccccc3)n3ncc4c3nc(N)n3nc(-c5ccco5)nc43)CC2)cc1 [Compound A63b, (R)-2-(5-amino-2-(furan-2-yl)-7H-pyrazolo[4,3-e][1,2,4]triazolo[1,5-c]pyrimidin-7-yl)-1-(4-(4-(2-methoxyethoxy)phenyl)piperazin-1-yl)-2-phenylpropan-1-one] |
| 1.8 nM | 52 nM |  |  | 27 nM | COCCOc1ccc(N2CCN(C(=O)Cn3ncc4c3nc(N)n3nc(-c5ccco5)nc43)CC2)cc1 [Compound D1, 2-(5-amino-2-(furan-2-yl)-7H-pyrazolo[4,3-e][1,2,4]triazolo[1,5-c]pyrimidin-7-yl)-1-(4-(4-(2-methoxyethoxy)phenyl)piperazin-1-yl)ethan-1-one] |
| 2.8 nM | 0.81 nM |  |  | 66.8 nM | COCCOc1ccc(N2CCN(C(=O)Cn3cc4c(nc(N)n5nc(-c6ccco6)nc45)n3)CC2)cc1 [Compound D2, 2-(5-amino-2-(furan-2-yl)-8H-pyrazolo[4,3-e][1,2,4]triazolo[1,5-c]pyrimidin-8-yl)-1-(4-(4-(2-methoxyethoxy)phenyl)piperazin-1-yl)ethan-1-one] |
